Results: ChEMBL document CHEMBL4507319 (2021)

Experiments:
Conditions in all cases: Compound concentration 1000.0 nM
[1] = system: Tyrosine-protein kinase ABL1 (Homo sapiens), P00519 [Y253F]
[2] = target: Tyrosine-protein kinase receptor UFO (Homo sapiens) (UniProt P30530)
[3] = target: Casein kinase II subunit alpha' (Homo sapiens) (UniProt P19784)
[4] = target: Dual specificity tyrosine-phosphorylation-regulated kinase 1B (Homo sapiens) (UniProt Q9Y463)
[5] = system: Epidermal growth factor receptor (Homo sapiens), P00533 [L861Q]
[6] = target: Ephrin type-A receptor 6 (Homo sapiens) (UniProt Q9UF33)
[7] = target: Serine/threonine-protein kinase/endoribonuclease IRE1 (Homo sapiens) (UniProt O75460)
Serine/threonine-protein kinase/endoribonuclease IRE1 (Homo sapiens), sequence (O75460 19-977 limits assumed): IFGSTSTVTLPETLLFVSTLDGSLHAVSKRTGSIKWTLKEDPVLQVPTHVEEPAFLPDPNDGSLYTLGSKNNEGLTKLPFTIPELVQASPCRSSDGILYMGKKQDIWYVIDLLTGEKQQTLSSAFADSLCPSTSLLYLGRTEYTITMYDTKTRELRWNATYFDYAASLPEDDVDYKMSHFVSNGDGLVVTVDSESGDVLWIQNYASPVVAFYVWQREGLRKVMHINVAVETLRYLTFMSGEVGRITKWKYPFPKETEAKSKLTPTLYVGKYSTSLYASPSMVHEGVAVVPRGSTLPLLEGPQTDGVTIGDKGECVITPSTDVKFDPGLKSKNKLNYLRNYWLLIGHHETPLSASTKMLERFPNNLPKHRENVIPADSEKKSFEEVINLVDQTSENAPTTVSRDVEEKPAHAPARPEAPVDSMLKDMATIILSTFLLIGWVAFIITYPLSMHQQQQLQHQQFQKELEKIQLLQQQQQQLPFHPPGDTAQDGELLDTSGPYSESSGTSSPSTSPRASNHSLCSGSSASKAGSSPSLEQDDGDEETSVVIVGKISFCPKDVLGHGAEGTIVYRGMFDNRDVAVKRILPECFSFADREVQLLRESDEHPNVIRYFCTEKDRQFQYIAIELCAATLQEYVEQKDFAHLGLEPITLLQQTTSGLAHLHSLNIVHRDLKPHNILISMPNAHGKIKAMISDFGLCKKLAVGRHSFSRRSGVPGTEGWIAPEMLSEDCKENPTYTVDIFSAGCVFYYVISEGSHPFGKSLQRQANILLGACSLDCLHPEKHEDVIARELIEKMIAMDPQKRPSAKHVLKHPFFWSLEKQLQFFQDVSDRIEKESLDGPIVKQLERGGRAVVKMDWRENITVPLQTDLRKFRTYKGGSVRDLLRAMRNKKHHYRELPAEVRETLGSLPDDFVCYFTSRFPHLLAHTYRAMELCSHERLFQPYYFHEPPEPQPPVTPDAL

[8] = target: Homeodomain-interacting protein kinase 3 (Homo sapiens) (UniProt Q9H422)
[9] = target: T1, Mitogen-activated protein kinase kinase kinase 2 (Homo sapiens) (UniProt Q9Y2U5)
T1 sequence (whole entry): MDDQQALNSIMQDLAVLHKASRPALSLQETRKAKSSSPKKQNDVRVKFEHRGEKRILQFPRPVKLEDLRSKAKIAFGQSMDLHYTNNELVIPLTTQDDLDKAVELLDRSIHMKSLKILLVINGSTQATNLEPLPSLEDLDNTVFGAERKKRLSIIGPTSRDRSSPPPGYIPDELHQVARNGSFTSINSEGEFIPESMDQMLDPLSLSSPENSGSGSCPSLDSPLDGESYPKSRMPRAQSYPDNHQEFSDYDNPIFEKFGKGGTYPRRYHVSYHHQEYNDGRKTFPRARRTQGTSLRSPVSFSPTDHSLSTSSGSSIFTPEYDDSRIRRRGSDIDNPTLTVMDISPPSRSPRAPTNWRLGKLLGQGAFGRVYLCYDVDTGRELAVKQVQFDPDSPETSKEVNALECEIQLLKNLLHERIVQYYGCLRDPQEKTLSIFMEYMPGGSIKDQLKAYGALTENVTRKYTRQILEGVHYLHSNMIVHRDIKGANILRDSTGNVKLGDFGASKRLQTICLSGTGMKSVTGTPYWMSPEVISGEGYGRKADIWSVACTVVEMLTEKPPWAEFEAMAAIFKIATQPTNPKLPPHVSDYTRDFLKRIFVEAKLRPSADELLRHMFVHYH

[10] = target: Serine/threonine-protein kinase MARK2 (Homo sapiens) (UniProt Q7KZI7)
Serine/threonine-protein kinase MARK2 (Homo sapiens), sequence (Q7KZI7 whole entry): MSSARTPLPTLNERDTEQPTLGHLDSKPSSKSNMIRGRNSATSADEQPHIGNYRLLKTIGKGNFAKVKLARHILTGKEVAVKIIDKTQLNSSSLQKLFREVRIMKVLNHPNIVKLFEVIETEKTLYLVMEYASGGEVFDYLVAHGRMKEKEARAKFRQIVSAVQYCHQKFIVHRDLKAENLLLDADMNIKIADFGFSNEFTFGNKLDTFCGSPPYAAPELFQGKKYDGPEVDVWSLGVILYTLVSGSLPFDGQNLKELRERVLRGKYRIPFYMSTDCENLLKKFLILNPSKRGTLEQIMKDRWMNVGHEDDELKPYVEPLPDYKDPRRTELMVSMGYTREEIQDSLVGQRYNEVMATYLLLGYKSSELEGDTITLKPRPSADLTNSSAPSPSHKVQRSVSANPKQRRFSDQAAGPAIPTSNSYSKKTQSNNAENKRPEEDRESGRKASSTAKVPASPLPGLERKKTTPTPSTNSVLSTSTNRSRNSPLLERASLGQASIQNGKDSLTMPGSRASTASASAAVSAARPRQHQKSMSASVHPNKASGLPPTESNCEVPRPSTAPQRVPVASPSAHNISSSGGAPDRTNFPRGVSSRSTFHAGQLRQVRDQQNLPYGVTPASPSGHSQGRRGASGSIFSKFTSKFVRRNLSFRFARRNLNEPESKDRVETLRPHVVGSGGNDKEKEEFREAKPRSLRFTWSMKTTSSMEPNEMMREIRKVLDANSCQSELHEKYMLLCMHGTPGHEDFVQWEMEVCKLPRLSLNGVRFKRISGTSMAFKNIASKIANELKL

[11] = target: Myosin light chain kinase, smooth muscle (Homo sapiens) (UniProt Q15746)
[12] = target: T2, Serine/threonine-protein kinase Nek2 (Homo sapiens) (UniProt P51955)
T2 sequence (whole entry): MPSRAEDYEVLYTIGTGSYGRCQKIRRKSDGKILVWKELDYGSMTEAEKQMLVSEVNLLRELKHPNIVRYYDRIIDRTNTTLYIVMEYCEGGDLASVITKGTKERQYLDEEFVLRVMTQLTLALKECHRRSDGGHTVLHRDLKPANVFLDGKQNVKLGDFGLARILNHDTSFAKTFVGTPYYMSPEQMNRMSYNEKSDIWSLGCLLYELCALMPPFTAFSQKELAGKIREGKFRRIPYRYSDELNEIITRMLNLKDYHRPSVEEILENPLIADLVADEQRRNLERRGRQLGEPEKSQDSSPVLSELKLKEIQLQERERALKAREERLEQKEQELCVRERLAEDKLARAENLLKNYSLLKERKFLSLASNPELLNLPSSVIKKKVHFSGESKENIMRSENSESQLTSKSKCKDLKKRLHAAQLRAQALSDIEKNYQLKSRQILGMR

[13] = target: Serine/threonine-protein kinase PLK3 (Homo sapiens) (UniProt Q9H4B4)
[14] = target: Ribosomal protein S6 kinase alpha-1 (Homo sapiens, UniProt Q15418)
[15] = target: T3, Serine/threonine-protein kinase ULK1 (Homo sapiens) (UniProt O75385)
T3 sequence (whole entry): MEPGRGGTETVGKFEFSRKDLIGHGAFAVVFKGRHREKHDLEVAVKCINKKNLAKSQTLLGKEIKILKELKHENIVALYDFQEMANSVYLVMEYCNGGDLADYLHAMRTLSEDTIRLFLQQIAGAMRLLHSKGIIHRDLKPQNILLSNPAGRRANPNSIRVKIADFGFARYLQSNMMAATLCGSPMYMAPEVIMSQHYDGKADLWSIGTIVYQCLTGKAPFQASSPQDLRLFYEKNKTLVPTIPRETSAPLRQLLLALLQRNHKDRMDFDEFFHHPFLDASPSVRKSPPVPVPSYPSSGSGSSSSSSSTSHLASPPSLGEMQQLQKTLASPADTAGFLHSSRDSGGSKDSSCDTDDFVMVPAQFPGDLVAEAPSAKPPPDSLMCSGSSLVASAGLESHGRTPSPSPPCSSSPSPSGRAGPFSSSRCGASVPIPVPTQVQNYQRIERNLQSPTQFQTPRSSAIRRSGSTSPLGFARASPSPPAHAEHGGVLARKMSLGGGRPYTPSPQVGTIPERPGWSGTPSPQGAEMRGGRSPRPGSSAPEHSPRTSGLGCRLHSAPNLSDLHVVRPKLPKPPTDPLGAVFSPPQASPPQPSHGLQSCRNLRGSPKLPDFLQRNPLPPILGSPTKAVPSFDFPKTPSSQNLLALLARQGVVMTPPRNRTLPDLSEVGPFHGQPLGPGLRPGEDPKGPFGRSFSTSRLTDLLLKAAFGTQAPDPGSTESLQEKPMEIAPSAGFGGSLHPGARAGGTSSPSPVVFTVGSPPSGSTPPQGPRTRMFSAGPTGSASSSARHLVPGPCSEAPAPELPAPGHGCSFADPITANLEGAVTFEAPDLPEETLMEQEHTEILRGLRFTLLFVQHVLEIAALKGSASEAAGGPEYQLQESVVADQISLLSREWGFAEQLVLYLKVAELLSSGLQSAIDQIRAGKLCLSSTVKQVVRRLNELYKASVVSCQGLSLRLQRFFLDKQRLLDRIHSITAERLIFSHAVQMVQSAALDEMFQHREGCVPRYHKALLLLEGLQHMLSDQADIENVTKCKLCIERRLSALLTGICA

[16] = target: Serine/threonine-protein kinase WNK1 (Homo sapiens) (UniProt Q9H4A3)
Serine/threonine-protein kinase WNK1 (Homo sapiens), sequence (Q9H4A3 whole entry, looked up): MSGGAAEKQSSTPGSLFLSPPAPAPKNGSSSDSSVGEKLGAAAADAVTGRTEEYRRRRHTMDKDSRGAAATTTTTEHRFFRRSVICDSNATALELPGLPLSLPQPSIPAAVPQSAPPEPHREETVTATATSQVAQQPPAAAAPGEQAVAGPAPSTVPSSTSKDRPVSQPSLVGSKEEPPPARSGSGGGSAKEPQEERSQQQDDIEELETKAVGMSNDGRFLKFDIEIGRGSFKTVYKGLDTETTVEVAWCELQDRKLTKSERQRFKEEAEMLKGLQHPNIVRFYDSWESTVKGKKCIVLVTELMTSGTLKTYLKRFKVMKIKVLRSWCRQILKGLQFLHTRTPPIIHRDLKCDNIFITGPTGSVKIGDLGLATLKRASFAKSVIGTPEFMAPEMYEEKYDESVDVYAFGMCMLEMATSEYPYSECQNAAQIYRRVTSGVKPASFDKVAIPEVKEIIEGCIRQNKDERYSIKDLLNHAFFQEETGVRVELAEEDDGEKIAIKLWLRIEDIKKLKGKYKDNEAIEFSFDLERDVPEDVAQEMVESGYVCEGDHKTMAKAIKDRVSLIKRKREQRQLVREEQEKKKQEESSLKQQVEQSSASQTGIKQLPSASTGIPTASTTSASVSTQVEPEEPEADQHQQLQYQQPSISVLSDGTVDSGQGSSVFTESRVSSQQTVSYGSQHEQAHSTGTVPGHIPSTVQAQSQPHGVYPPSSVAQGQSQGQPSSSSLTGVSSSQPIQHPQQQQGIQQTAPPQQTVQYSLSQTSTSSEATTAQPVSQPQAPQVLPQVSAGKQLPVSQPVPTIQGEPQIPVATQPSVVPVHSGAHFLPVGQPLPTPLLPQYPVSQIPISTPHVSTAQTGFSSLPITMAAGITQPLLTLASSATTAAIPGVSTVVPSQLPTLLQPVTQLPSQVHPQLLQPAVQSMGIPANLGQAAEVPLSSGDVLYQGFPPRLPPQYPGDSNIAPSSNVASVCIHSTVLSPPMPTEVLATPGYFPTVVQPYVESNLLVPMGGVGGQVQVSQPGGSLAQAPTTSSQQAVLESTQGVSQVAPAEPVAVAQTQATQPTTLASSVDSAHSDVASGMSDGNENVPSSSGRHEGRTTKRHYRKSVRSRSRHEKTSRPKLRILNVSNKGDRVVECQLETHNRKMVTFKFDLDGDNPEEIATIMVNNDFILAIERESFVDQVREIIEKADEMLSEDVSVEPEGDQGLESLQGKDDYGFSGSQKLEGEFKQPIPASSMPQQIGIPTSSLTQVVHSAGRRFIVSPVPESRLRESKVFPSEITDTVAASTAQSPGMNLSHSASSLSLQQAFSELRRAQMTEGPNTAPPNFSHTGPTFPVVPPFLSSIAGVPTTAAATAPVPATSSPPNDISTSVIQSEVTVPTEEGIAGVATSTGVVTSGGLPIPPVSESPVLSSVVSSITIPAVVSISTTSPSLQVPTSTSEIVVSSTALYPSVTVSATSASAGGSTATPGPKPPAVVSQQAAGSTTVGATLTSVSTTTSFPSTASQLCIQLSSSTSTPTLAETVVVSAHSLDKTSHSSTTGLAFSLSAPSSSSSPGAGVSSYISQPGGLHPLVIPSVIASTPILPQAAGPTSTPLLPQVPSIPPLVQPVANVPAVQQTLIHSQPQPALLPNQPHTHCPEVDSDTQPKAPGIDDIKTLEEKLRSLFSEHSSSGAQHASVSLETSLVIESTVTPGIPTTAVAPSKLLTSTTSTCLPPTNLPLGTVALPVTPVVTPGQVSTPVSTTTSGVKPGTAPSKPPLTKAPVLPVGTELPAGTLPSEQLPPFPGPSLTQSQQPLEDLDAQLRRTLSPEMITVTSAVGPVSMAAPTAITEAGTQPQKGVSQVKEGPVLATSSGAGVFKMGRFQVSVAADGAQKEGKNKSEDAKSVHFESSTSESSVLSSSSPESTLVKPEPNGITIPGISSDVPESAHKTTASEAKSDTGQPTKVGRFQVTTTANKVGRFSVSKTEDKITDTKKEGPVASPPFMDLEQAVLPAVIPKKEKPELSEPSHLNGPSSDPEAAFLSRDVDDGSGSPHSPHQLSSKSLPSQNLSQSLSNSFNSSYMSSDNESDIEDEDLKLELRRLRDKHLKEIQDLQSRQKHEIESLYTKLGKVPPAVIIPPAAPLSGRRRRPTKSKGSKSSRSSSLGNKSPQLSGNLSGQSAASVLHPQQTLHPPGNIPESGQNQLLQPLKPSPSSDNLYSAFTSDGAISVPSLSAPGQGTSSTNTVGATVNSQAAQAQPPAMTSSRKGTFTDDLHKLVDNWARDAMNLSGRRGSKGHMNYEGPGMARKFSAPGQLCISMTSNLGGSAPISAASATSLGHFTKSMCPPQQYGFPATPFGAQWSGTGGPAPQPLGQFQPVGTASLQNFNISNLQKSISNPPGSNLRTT

[17] = target: Serine/threonine-protein kinase 32C (Homo sapiens) (UniProt Q86UX6)

Casein kinase II subunit alpha' (Homo sapiens), sequence (P19784 whole entry, looked up): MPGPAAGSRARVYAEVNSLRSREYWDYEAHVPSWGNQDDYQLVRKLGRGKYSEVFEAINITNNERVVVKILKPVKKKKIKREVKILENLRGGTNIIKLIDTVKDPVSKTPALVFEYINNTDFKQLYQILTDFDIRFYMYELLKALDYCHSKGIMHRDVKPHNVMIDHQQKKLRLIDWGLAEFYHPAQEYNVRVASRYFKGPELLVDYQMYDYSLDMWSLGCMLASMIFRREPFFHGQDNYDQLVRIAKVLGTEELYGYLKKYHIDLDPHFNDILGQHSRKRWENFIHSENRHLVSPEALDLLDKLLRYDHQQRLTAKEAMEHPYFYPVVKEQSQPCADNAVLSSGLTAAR
Dual specificity tyrosine-phosphorylation-regulated kinase 1B (Homo sapiens), sequence (Q9Y463 whole entry, looked up): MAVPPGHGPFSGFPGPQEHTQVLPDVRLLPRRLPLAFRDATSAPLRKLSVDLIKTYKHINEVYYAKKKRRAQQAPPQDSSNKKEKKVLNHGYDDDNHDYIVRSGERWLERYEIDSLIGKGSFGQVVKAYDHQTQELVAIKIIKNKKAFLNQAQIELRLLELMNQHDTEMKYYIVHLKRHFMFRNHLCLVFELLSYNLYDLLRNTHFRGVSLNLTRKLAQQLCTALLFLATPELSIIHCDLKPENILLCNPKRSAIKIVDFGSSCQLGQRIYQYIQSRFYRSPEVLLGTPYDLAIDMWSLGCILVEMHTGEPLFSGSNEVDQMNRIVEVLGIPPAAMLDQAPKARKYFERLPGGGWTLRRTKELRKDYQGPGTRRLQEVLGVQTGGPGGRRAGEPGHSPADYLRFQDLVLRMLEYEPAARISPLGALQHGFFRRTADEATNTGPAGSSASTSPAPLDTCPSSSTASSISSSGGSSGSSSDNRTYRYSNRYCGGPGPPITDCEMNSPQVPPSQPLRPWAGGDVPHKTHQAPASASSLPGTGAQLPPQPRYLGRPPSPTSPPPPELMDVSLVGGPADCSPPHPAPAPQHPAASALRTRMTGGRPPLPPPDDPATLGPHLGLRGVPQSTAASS

Row | SMILES | residual activity [1] | residual activity [2] | residual activity [3] | residual activity [4] | residual activity [5] | residual activity [6] | residual activity [7] | residual activity [8] | residual activity [9] | residual activity [10] | residual activity [11] | residual activity [12] | residual activity [13] | residual activity [14] | residual activity [15] | residual activity [16] | residual activity [17]
1 | CCc1ccccc1C(=O)Nc1n[nH]c2c(C)c(F)c(C3C(C#N)=C(C)N(C)C(C)=C3C#N)cc12 [BAY-3827] | 85% | 100% | 100% | 100% | 43% | 57% | 70% | 100% | 100% | 40% | 55% | 87% | 100% | 1.8% | 29% | 100% | 100%
2 | CC1=C(C#N)C(c2ccc3c(c2)c(NC(=O)c2ccccc2C)nn3C)C(C#N)=C(C)N1 [BAY-974] | 82% | 100% | 100% | 63% | 69% | 89% | 84% | 73% | 100% | 99% | 100% | 100% | 80% | 100% | 86% | 82% | 79%
